Measured values taken from patent US10111877B2, “Modulators of androgen synthesis” (Tangent Reprofiling Limited, priority 2012, dated 2018).
Where two headings read alike, the source gives them in different places.

Assays:
PC3 cells [1] = assay: Cell metabolism inhibition assay (Cell titre Blue) with fatty acids; format: cell-based; details: for Cellular Metabolic Activity: 100% = undrugged media
Procedure: A cell metabolism inhibition assay was performed to determine the effect of different fatty acids on cellular metabolic rate. The fatty acids tested were α-Linolenic acid, omega 3 fatty acid (ALA), Arachidonic acid, omega 6 fatty acid (AA), 9Z, 11E conjugated Linoleic acid, omega 7 fatty acid (CLA), Docosahexaenoic acid, omega 3 fatty acid (DHA), Eicosapentaenoic acid, omega 3 fatty acid (EPA), Oleic acid, omega 9 fatty acid (OA), Ricinoleic acid, omega 9 hydroxylated fatty acid (RA).
PC3 cells are from a cell line derived from a hormone refractory prostate cancer and are known to overexpress HSD10. PC3 cells were seeded at a density of 4,000 cells per well in a 96 well plate, and incubated at 37° C., 5% CO2 for 48 hours in standard growth media (F12K nutrient media, 7% Fetal Calf Serum, 2 mM L-Glutamine, 45 mg/L ascorbic acid). The media was then removed by pipette and replaced with the appropriate drug treatment as follows: 20 μM, or 40 μM, or 60 μM, or 80 μM, or 100 μM ALA in PC3 treatment media (F12K nutrient media, 125 uM fatty acid free BSA, 2 mM L-Glutamine, 45 mg/L ascorbic acid); 20 μM, or 40 μM, or 60 μM, or 80 μM, or 100 μM AA in PC3 treatment media; 20 μM, or 40 μM, or 60 μM, or 80 μM, or 100 μM CLA in PC3 treatment media; 20 μM, or 40 μM, or 60 μM, or 80 μM, or 100 μM DHA in PC3 treatment media; 20 μM, or 40 μM, or 60 μM, or 80 μM, or 100 μM EPA in PC3 treatment media; 20 μM, or 40 μM, or 60 μM, or 80 μM, or 100 μM OA in PC3 treatment media; and 20 μM, or 40 μM, or 60 μM, or 80 μM, or 100 μM RA in PC3 treatment media. After incubation in the drug treatment for 72 hours at 37° C., 5% CO2, 50 μL Cell titre Blue Assay Reagent was added to each well and the plate return to incubation at 37° C., 5% CO2, for a further 24 hours, at which time the absorbance at 620 nm was recorded. The reduction of absorbance at 620 nm represents a higher metabolic rate, and the data below has been normalized such that 100% represents cells that have been grown in the presence of undrugged media, and 0% represents wells containing no cells.

HSD10 = molecular target: T1, HSD10 (Homo sapiens, UniProt Q99714); assay: HSD10 Enzyme Inhibition Assay; format: biochemical; details: 50 μM drug
T1 construct: endogenous in cells; host or cells: PC3 cells
T1 sequence (Q99714 1-261): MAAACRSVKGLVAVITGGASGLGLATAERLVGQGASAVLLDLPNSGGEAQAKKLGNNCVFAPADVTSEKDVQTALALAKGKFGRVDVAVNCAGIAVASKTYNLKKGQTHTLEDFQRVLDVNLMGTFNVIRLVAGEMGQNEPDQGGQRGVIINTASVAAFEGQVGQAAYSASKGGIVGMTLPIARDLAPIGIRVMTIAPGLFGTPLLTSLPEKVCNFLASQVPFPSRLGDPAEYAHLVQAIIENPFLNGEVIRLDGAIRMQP
Procedure: An HSD10 inhibition assay was performed to determine the effect of several anti-psychotics on enzyme activity.
(§1) PC3 cells are from a cell line derived from a hormone refractory prostate cancer and are known to overexpress HSD10. […] Cells line tests were carried out in presence and absence of testosterone for comparison. After incubation in the drug treatment for 96 hours at 37° C., 5% CO2, the supernatant was removed from all wells of cells, and cells washed with 200 μL PBS.
(§2) After removal of the PBS, cell number was determined using a lysed cell LDH assay (CytoTox 96 Non-radioactive cytotoxicity assay (LDH Assay); Promega, Co., Madison Wis.). Cells were lysed with 0.9% Triton-X in PBS for 2 hours at 37° C., 5% CO2 and 50 μL of this cell lysate was transferred to a fresh 96 well plate. About 50 μL of CytoTox 96 assay reagent was added to the transferred cell lysate and this mixture was incubated at room temperature in the dark for 20 minutes. After the addition of 50 μL stop reagent, the optical absorbance was determined for each incubated mixture at 492 nm. […] The mean and standard error was calculated from at least 3 wells.

PC-3M-luc cells = assay: Orthotopic prostate tumor mouse xenograft model; details: single drug
Procedure: Immunodeficeint male mice (athymic nude mice) were acclimated to the laboratory for at least one week prior to implantation of tumor. PC-3M-luc cells obtained directly from in vitro culture were then injected into the prostate on Day 0. Animals were divided into six groups of 12 mice each. Primary tumor size and metastases were assessed by bioluminescence measurements on day 6, 13, 20, 27, 34, and 40. On day 7 a five week treatment regime was initiated. Both individual drug and high and low dose combination were examined by administering the drugs twice daily on an individual body weight basis using a dose escalation protocol (Table 7). If tumors grew above a pre-determined level, or mice lost more than 10% of bodyweight, they were culled. The primary tumor was excised, weighed and measured. Individual organs were imaged to assess metastatic burden.

PC3 cells [2] = assay: Cell growth inhibition, lysed cell LDH assay, prostate cancer cell line; format: cell-based; details: 96 hours, 100% = no drug treatment (Table 3);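 also: 100% is cells receiving no drug treatment and 0% is wells without cells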
Procedure: To determine whether Risperidone could be effective in inhibiting growth of cancer cells overexpressing HSD10, a lysed cell LDH assay was conducted using cells from a PC3 cell line.
as §1, §2
To determine the optimal concentration of Risperidone and CLA necessary to inhibit cell growth, a lysed cell LDH assay was conducted using various concentration of Risperidone and CLA. PC3 cells were cultured and a lysed cell LDH assay was conducted as described above, except that the various drug treatments evaluated contained either 0 μM, 12.5 μM, 25 μM, or 50 μM Risperidone in combination with 0 μM, 6.25 μM, 12.5 μM, 25 μM, 50 μM, or 100 μM CLA (see Table 3).
as §2, with “PBS from the cell cultures described above,” for “PBS,”, “assay.” for “assay (CytoTox 96 Non-radioactive cytotoxicity assay (LDH Assay); Promega, Co., Madison Wis.).”

[3] = read-out: Oxidative Activity Drug Inhibition
[4] = read-out: Reductive Activity Drug Inhibition

SMILES	Cellular Metabolic Activity (PC3 cells [1]; 20 μM fatty acid)	Cellular Metabolic Activity (PC3 cells [1]; 40 μM fatty acid)	Cellular Metabolic Activity (PC3 cells [1]; 60 μM fatty acid)	Cellular Metabolic Activity (PC3 cells [1]; 80 μM fatty acid)	Cellular Metabolic Activity (PC3 cells [1]; 100 μM fatty acid)	inhibition at 50 µM (HSD10; [3])	inhibition at 50 µM (HSD10; [4])	further results
CC/C=C\C/C=C\C/C=C\CCCCCCCC(=O)O [ALA, α-Linolenic acid]	118 ± 0.5%	118 ± 0.9%	118 ± 0.2%	117 ± 0.9%	114 ± 1.2%			
CN(C)CCCN1c2ccccc2Sc2ccc(Cl)cc21 [Chlorpromazine]						8%	18%	Oxidative Activity Rate (HSD10): 7.7 µM/min; Reductive Activity Rate (HSD10): 7.2 µM/min
CCCCC/C=C\C/C=C\C/C=C\C/C=C\CCCC(=O)O [AA, Arachidonic acid]	107 ± 3.9%	90 ± 5.6%	78 ± 6.4%	66 ± 7.2%	60 ± 5.9%			
CN1CCN(C2=Nc3cc(Cl)ccc3Nc3ccccc32)CC1 [Clozapine]						43%	15%	
CC/C=C\C/C=C\C/C=C\C/C=C\C/C=C\CCCC(=O)O [EPA, Eicosapentaenoic acid]	94 ± 9.4%	71 ± 8.2%	67 ± 7.4%	49 ± 7.4%	37 ± 5.9%			metabolic inhibition (PC3 cells [1]; 80-100 μM range): 50-65%
CC(=O)O[C@@]12CO[C@@H]1C[C@H](O)[C@@]1(C)C(=O)[C@H](O)C3=C(C)[C@@H](OC(=O)[C@H](O)[C@@H](NC(=O)OC(C)(C)C)c4ccccc4)C[C@@](O)([C@@H](OC(=O)c4ccccc4)[C@H]21)C3(C)C [Docetaxel]								body weight throughout the study (PC-3M-luc cells; by Day 40): on a trend of losing weight; Tumor Growth Inhibition (PC-3M-luc cells; calculated on Day 34, dosing per Table 7): 94%; Animal Survival (overall survivorship) (PC-3M-luc cells; day 40, dosing per Table 7): 100%
CCCCCCCC/C=C\CCCCCCCC(=O)O [OA, Oleic acid]	109 ± 2.7%	108 ± 0.9%	111 ± 2.2%	110 ± 2.2%	111 ± 2.0%			
CN(C)CCOC(c1ccccc1)c1ccccc1 [Diphenhydramine]						5%	6%	Oxidative Activity Rate (HSD10): 8.0 µM/min; Reductive Activity Rate (HSD10): 8.3 µM/min
CN(C)CCCN1c2ccccc2CCc2ccc(Cl)cc21 [Clomipramine]						73%	15%	Oxidative Activity Rate (HSD10): 2.3 µM/min; Reductive Activity Rate (HSD10): 7.5 µM/min
CC/C=C\C/C=C\C/C=C\C/C=C\C/C=C\C/C=C\CCC(=O)O [DHA, Docosahexaenoic acid]	90 ± 8.2%	74 ± 7.6%	58 ± 5.9%	49 ± 7.7%	34 ± 7.0%			metabolic inhibition (PC3 cells [1]; 60-100 μM range): 40-65%; Percentage of Lysed Cells (PC3 cells [2]; 12.5 μM of each drug): 109 ± 1.1%; Percentage of Lysed Cells (PC3 cells [2]; 25 μM of each drug): 102 ± 3.5%; Percentage of Lysed Cells (PC3 cells [2]; 50 μM of each drug): 95 ± 3.8%
CCCCCC[C@@H](O)C/C=C\CCCCCCCC(=O)O [RA, Ricinoleic acid]	91 ± 6.0%	94 ± 4.7%	90 ± 6.2%	90 ± 6.0%	94 ± 3.1%			
